Laboratory results taken from patent US10098347B2, “Methods of improving growth and stress tolerance in plants” (Valent BioSciences LLC, priority 2016, dated 2018).

Legend:
Assay type in all cases: in vivo
[1] = tested on: Italian large leaf basil (Ocimum basilicum) seedlings; assay: Chilling tolerance assay in basil seedlings (24-well plates)
Experimental: To determine the capacity of glycine betaine (“GB”) to confer thermo-tolerance, both singly and in combination with (S)-abscisic acid (“(S)-ABA”), chilling (i.e. cold) tolerance assays were performed using Italian large leaf basil (Ocimum basilicum) seedlings. Basil seeds were sterilized in an ethanol solution containing 0.16% Maxim® XL fungicide (Maxim is a registered trademark of and available from Syngenta Corporation). The sterilized seeds were germinated on ½×Murashige and Skoog Basal Salt Media, supplemented with 1× Gamborg's Vitamins and 0.6% Phytagar, and dispensed into 24-well plates. […]
After five days, concentrated solutions of GB and/or (S)-ABA were added as an overlay in 0.4% Phytagar. […] The seedlings were subjected to chilling stress for six days, after which time they were transferred back to the ambient temperature chamber, and scored after a six-day recovery period.
Individual wells contained indicated amounts of GB and/or (S)-ABA. […] GB was evaluated singly at concentrations of 0, 3,000, 10,000, 30,000, and 100,000 milligrams per liter (“mg/l”.) To test whether there was a synergistic interaction between GB and (S)-ABA, glycine betaine was added to the media at concentrations of 0, 1,000, 3,000, 10,000, and 30,000 mg/l, whereas (S)-ABA was held at a concentration of 3 mg/l. […]

[2] = tested on: Cucumber (Cucumis sativa var. Straight Eight); assay: Post-chilling damage in cucumber following spray treatment
Experimental: A laboratory study was conducted at Long Grove, Ill. Cucumber (Cucumis sativa var. Straight Eight) seeds were sown in Pro-Mix® BX potting soil (Pro-Mix is a registered trademark of and available from Premier Horticulture Ltd.) and plants were grown in a CONVIRON® growth chamber at 25° C. under a 16:8 (light:dark) photoperiod. At 15 days post-sowing, plants were subjected to sprays with a portable Preval® paint sprayer. All spray solutions were made up in deionized water and a non-ionic surfactant was added to all spray solutions at 0.05% (v/v). At 48 hours post-spraying, plants were moved to a CONVIRON® growth chamber and subjected to a temperature of 4° C. for 48 hours under a 12:12 (light:dark) photoperiod. Upon removal from the cold chamber, plants were returned to a CONVIRON® growth chamber set at 25° C. under a 16:8 (light:dark) photoperiod. The plants were visually scored for chilling damage at 72 hours post-chilling. Each treatment was replicated seven times. […] Using the following formula, Applicant was able to determine that the response to the GB:(S)-ABA ratio was synergistic, in which a synergy factor is calculated by the […]: % Cexp=A+B−(AB/100), where % Cexp is the expected efficacy and “in which A and B are the increase in growth (or resistance to stress) levels given by the single [plant growth regulators]. If the ratio between the experimentally observed efficacy of the mixture Cobs and the expected efficacy of the mixture is greater than 1, synergistic interactions are present in the mixture” (Gisi, Synergistic Interaction of Fungicides in Mixtures, The American Phytopathological Society, 86:11, 1273-1279, 1996). To be conservative Applicant has set the minimum synergy factor to 1.1 throughout the Examples. Applicant determined synergy to be present at the following ratios of GB:(S)-ABA: 1:1 (synergy factor 3.74); 3.3:1 (synergy factor 2.68) and 10:1 (synergy factor 1.24).

[3] = tested on: Italian sweet basil; assay: Chilling damage of Italian sweet basil following spray treatment (Example 3)
Experimental: (§1) A laboratory study was conducted at Long Grove, Ill. Italian sweet basil seeds were sown in Pro-Mix® BX potting soil and plants were grown at room temperature under cool-white fluorescent lights under a 16:8 (light:dark) photoperiod. At 22 days post-sowing, plants were subjected to sprays with a portable Preval® paint sprayer. At 48 hours post-spraying, plants were moved to a CONVIRON® growth chamber and subjected to a temperature of 4° C. for 72 hours under a 12:12 (light:dark) photoperiod. Upon removal from the cold chamber, plants were returned to the laboratory and placed again under the cool white fluorescent lamps until they were visually scored for chilling damage at 24 hours and 72 hours post-chilling. Each treatment was replicated seven times.

[4] = tested on: Italian sweet basil; assay: Chilling damage of Italian sweet basil following spray treatment (Example 4)
Experimental: as §1, with “the cool-white” for “the cool white”, “and 120” for “and 72”

[5] = tested on: Corn; assay: Stomatal conductance of corn following spray; details: for % of Control Conductance 4 days: 4 days post-spray; for % of Control Conductance 3 days: 3 days post-spray
Experimental: A greenhouse study was conducted at Long Grove, Ill. Seeds of a commercial hybrid variety were sown in Pro-Mix® BX in three-liter pots. Greenhouses were kept at 25±3° C. under a 16:8 hour (light:dark) photoperiod, with illumination at canopy level of ˜250 μmoles m-2 s-1. Corn was typically fertigated with Peters 21-5-20+ micronutrients, calcium ammonium nitrate and magnesium sulfate. Typical growth rates for corn under these conditions ranged from 4 to 5 centimeters per day.
In this study, spray applications were made to corn at stage V4. These applications were made in a track sprayer outfitted with a 4001E Teejet® nozzle (Teejet is available from and a registered trademark of Spraying Systems Co., Glendale Heights, Ill., USA) and applied at 40 pounds per square inch and at 30 gallons/acre of spray solution. Following spray applications, plants were returned to the greenhouse.
At 3 and 4-days post spray application, stomatal conductance of the 4th true leaf was measured using a Licor Model 6400 XT photosynthesis meter (Licor, Lincoln, Neb.) used according to the manufacturer's directions. For ease of analysis, stomatal conductance values are expressed as a percent of control in Table 5 below.

[6] = single agent spray 300 mg/l, 72 hours post-chilling (4° C. 48 h)
[7] = single agent spray 300 mg/l, 4° C. 72 h

CC1=CC(=O)CC(C)(C)[C@@]1(O)/C=C/C(C)=C/C(=O)O [(S)-ABA, (S)-abscisic acid]
Chilling injury ([1]; 20 ppm (S)-ABA alone (positive control)): “++” denotes little to no chilling injury; equivalent to 20 ppm (S)-ABA alone | % Leaf Area Damaged [2, 6]: 52.9% | % Leaf Area Damaged 72 h post-chilling ([3]; single agent spray 300 mg/l): 27% | % Leaf Area Damaged 24 h post-chilling [3, 7]: 12% | % Leaf Area Damaged 24 h post-chilling ([3]; single agent spray 1,000 mg/l): 6% | % Leaf Area Damaged 72 h post-chilling ([3]; single agent spray 1,000 mg/l): 14% | % Leaf Area Damaged 120 h post-chilling ([4]; single agent spray 300 mg/l): 41.00% | % Leaf Area Damaged 24 h post-chilling [4, 7]: 23.00% | % Leaf Area Damaged 24 h post-chilling ([4]; single agent spray 1,000 mg/l): 11.67% | % Leaf Area Damaged 120 h post-chilling ([4]; single agent spray 1,000 mg/l): 21.67% | % of Control Conductance 4 days ([5]; single agent spray 100 mg/l): 91.8 % of Control | % of Control Conductance 3 days ([5]; single agent spray 100 mg/l, corn stage V4, 4th true leaf): 81.3 % of Control | % of Control Conductance 3 days ([5]; single agent spray 300 mg/l): 73.6 % of Control | % of Control Conductance 4 days ([5]; single agent spray 300 mg/l): 88.7 % of Control | % of Control Conductance 3 days ([5]; single agent spray 1,000 mg/l): 76.5 % of Control | % of Control Conductance 4 days ([5]; single agent spray 1,000 mg/l): 95.9 % of Control | % of Control Conductance 3 days ([5]; single agent spray 3,000 mg/l): 55.3 % of Control | % of Control Conductance 4 days ([5]; single agent spray 3,000 mg/l): 77.5 % of Control

C[N+](C)(C)CC(=O)[O-] [GB, Glycine betaine]
Protection against chilling injury ([1]; 30,000 mg/l GB alone): equivalent protection as ˜20 mg/l (S)-ABA | % Leaf Area Damaged [2, 6]: 84.3% | % Leaf Area Damaged ([2]; single agent spray 1,000 mg/l, 72 hours post-chilling): 82.1% | % Leaf Area Damaged ([2]; single agent spray 3,000 mg/l, 72 hours post-chilling): 46.4% | % Leaf Area Damaged 24 h post-chilling ([3]; single agent spray 3,000 mg/l): 67% | % Leaf Area Damaged 72 h post-chilling ([3]; single agent spray 3,000 mg/l): 79% | % Leaf Area Damaged 24 h post-chilling ([3]; single agent spray 20,000 mg/l): 45% | % Leaf Area Damaged 72 h post-chilling ([3]; single agent spray 20,000 mg/l): 65% | % Leaf Area Damaged 24 h post-chilling ([4]; single agent spray 10,000 mg/l): 39.17% | % Leaf Area Damaged 120 h post-chilling ([4]; single agent spray 10,000 mg/l): 56.67% | % Leaf Area Damaged 24 h post-chilling ([4]; single agent spray 30,000 mg/l): 40.00% | % Leaf Area Damaged 120 h post-chilling ([4]; single agent spray 30,000 mg/l): 50.00% | % of Control Conductance 3 days ([5]; single agent spray 1,000 mg/l): 86.2 % of Control | % of Control Conductance 4 days ([5]; single agent spray 1,000 mg/l): 97.9 % of Control
